Test results reported in patent publication US20250177548A1, “FUSOGENIC PEPTIDE COMPOSITIONS AND METHODS OF CARGO DELIVERY” (CLEMSON UNIVERSITY, priority 2022, published 2025).
“And” between values parts separate entries of the source, which are not always exact repeats. Equal values may be shown once. “Also recorded” adds a separate entry of the source. Non-standard residues stand in square brackets, D forms with d. No end group written: not given here. pG = not defined here

How the values were obtained:
RNase A = assay: gel assay of siRNA protection from RNase A degradation; format: in vitro ADME; conditions: 1 hour, several N:P ratios
Description: Gel Shift Assays. DIVA3, DIV3H, and DIV3W (all three denoted as DIV3 (X)) peptides suspended in RNase-free water (10 μM), were thawed, and kept on ice prior to complexation with 10 μM of negative control siGENOME non-targeting siRNA #5 (siNT, GE Healthcare Dharmacon, Lafayette, CO) in RNase-free water and incubated for 20 minutes at room temperature to allow the formation of DIV3 (X)-siNT complexes. Various molar ratios of peptides were complexed with siNT at increasing N:P molar ratios to determine the minimum molar ratio necessary to completely complex free siRNAs using an electrophoretic mobility shift assay. To determine the ability of each peptide variant to protect siRNAs from degradation, DIV3 (X)-siNT complexes or siNT alone was left untreated or incubated with either 50% v/v FBS or 5 μg/mL RNase A at 37° C. for one hour. Next, complexes were dissociated using 6% sodium dodecyl sulfate (SDS). Samples were added to a 2% agarose gel and run at 100 V. Gels were stained with ethidium bromide, destained with Milli-Q water, and imaged using a ChemiDoc XRS imager (Bio-Rad, Hercules, CA).
Characterization of Nanoparticle Size and Stability. To determine the minimum molar ratio necessary to completely complex free siRNAs, increasing N:P molar ratios of LHRH, DIV3W, and LHRH-DIV3W peptide were complexed with siRNAs and electrophoresed using a electrophoretic mobility shift assay. Molar ratios, shown as N:P, are representations of the molar amine peptide content in relation to 1 mole of phosphate group siRNA content. To determine the ability of the peptides to protect siRNAs from serum- or RNase-mediated degradation, LHRH and LHRH-DIV3W complexes were formed in RNase-free water with siNT at increasing N:P molar ratios and incubated at 37° C., 5% CO2, 50% v/v FBS, 5 μg/mL RNase A, or 50% v/v RNase free water for 1 hour. Peptide/siRNA complexes were dissociated using 6% sodium dodecyl sulfate (SDS) prior to electrophoresis in a 2% agarose gel run at 100 V. Gels were stained with ethidium bromide, washed with Milli-Q water, and imaged with a BioRad ChemiDoc XRS imager (BioRad, Hercules, CA).
Peptides VA-LD and GF-LD, comprising the cleavable linker VA or GLFG, respectively, between the LHRH target sequence and the DIV3W peptide, and non targeting siRNA were electrostatically complexed at increasing N:P ratios then subjected to agarose gel electrophoresis to determine optimal siRNA binding for each peptide. […] Peptide-siRNA nanocomplexes at increasing N:P ratios for peptides for VA-LD (FIG. 30A) and GF-LD (FIG. 30C) were incubated in either Rnase A enzyme or in 50% fetal bovine serum (FBS) for 1 h, dissociated using SDS then subjected to gel electrophoresis to visualize siRNA bands. Gels showing increasing N:P ratios of peptide:siRNA for VA-LD (FIG. 30B) and GF-LD (FIG. 30D) from 20:1 to 80:1 N:P; white bands are indicative of intact siRNA

LHRH receptor = molecular target: T1, LHRH receptor (Homo sapiens, UniProt P30968); assay: competitive binding assay with LHRH receptor antibody; format: cell-based; conditions: OVCAR3 and CAOV3 cells, siNT-Cy5.5 complexes, 4 hours
T1 construct: endogenous in cells; host or cells: OVCAR3, CAOV3
T1 sequence (P30968 1-328): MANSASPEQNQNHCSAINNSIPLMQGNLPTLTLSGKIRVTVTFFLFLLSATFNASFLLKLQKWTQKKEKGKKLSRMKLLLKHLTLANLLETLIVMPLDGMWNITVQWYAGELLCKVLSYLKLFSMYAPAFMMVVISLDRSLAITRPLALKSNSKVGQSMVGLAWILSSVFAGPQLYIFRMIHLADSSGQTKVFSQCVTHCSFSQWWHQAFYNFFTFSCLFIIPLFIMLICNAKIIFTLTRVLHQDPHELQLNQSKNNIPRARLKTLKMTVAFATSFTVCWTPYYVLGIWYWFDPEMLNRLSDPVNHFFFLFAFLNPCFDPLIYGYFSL
Description: To analyze the specificity of the LHRH-DIV3W tandem peptide targeting LHRH receptor, a competitive binding assay was performed by incubating OVCAR3 and CAOV3 cells with GnRHR primary antibody (1:100) in 1× PBS overnight at 4° C. after being blocked with a 1% bovine serum albumin solution for 30 minutes at room temperature. LHRH-DIV3W-siNT-Cy5.5 complexes were delivered after the overnight primary antibody incubation and incubated again for 4 hours. Secondary SuperSignal Alexa Fluor 488 antibodies were delivered dropwise to cells following Invitrogen SuperSignal protocols and left to incubate at room temperature for 30 minutes and subsequently stained with SuperSignal NucBlue Hoescht 33342 for an additional 30 minutes at room temperature. Cells were imaged at 20× and 40× using an Evos FL microscope (Thermo Fisher).

CAOV3 cells = assay: cellular uptake of labeled siRNA by flow cytometry; format: cell-based; conditions: for uptake efficiency: 80:1
Description: (§1) Cellular Uptake. OVCAR3 and CAOV3 cells were prepared at 50,000 cells per well in a 24-well plate. […] Post-incubation, media was aspirated and cells were washed with 1× PBS. To counterstain the nuclei, SuperSignal NucBlue Hoechst stain (Thermo Fisher, Waltham, MA) was added to the cells for 30 minutes, followed by an additional 1×PBS wash. Subsequent imaging was performed using an EVOS FL Microscope (Thermo Fisher) at 10× magnification. For flow cytometric analysis, cells were detached, resuspended in 1× PBS, and analyzed using an Attune NXT Acoustic flow cytometer (Invitrogen, Carlsbad, CA) with the blue laser line and BL2 (574/26 nm) channel.
(§2) Cellular Uptake and Targeting Specificity. Observation of cell uptake was performed by seeding OVCAR3 and CAOV3 cells at a density of 50,000 cells per well in a 24-well plate. LHRH and LHRH-DIV3W peptides were complexed with […] as previously described and delivered to cells at 20:1 to 80:1 N:P ratios. Each cell line was incubated with tandem peptide complexes for both 4- and 24-hour treatment periods. Following incubation, cell media was removed, and cells were washed with 1× PBS prior to the addition of 500 μL of 1×PBS and SuperSignal NucBlue Hoescht 33342 nuclear stain (Thermo Fisher, Waltham, MA). Cellular imaging was completed using an EVOS FL Microscope (Thermo Fisher) at 10×, 20×, and 40× magnification. Flow cytometry was completed after cell imaging and cells were trypsinized, resuspended in 1×PBS, and analyzed with an Attune NXT Acoustic Flow Cytometer (Invitrogen) with the red laser line and RL2 […] channel.

OVCAR3 cells = assay: cellular uptake of labeled siRNA by flow cytometry; format: cell-based; design: uptake efficiency higher than DIV3W uptake: concentration or dose not given beside the values; conditions: for uptake efficiency, tandem vs LHRH peptide: FIG. 10E, 4 hr, cell line not stated
Description: as §1, §2

## pGHWSY-(d) LLRPGGGGGWEADIVADIVWDIVADIVAGGG-(d) RRRRRRRRR ([pG]HWSY[dL]LRPGGGGGWEADIVADIVWDIVADIVAGGG[dR][dR][dR][dR][dR][dR][dR][dR][dR]; reading uncertain) [LHRH-DIV3W]
RNase A
  intact siRNA after incubation with RNase A: Higher N:P ratios were required for full protection
LHRH receptor
  siRNA internalization after preincubation with LHRH receptor antibody: siRNA internalization was drastically decreased; also recorded: minimal siRNA internalization
CAOV3 cells; CAOV3
  uptake efficiency higher than DIV3W uptake: 11%
CAOV3 cells; CAOV3, siNT-Cy5.5, 4 hours
  uptake efficiency: 36.19%+9.67% and 36.19%±16.76%
CAOV3 cells; CAOV3, siNT-Cy5.5, 24 hours
  uptake efficiency: 63.47%+4.61% and 63.4%±4.6%
OVCAR3 cells; 40:1
  uptake efficiency, tandem vs LHRH peptide: 66.81%±4.3%
OVCAR3 cells; 60:1
  uptake efficiency, tandem vs LHRH peptide: 72.59%±6.87%
OVCAR3 cells; 80:1
  uptake efficiency, tandem vs LHRH peptide: 76.26%±14.9%
OVCAR3 cells; OVCAR3
  uptake efficiency higher than DIV3W uptake: 12%
OVCAR3 cells; OVCAR3, siNT-Cy5.5, 4 hours, 80:1
  uptake efficiency: 79.58%+0.61% and 79.58%±1.05%
OVCAR3 cells; OVCAR3, siNT-Cy5.5, 24 hours, 80:1
  uptake efficiency: 76.26%±15.56%
